Measured values published in US20090048214A1, “Methods for Treating Renal Tumors Using 2, 4-Pyrimidinediamine Drug and Prodrug Compounds” (RIGEL PHARMACEUTICALS, INC, priority 2006, published 2009).

Columns and labels:
[1] = system: COLO 205; assay: cells; details: Homo sapiens
[2] = system: OVCAR-3; assay: cells; details: Homo sapiens
[3] = system: NCI-H226; assay: cells; details: Homo sapiens
[4] = system: HS 578T; details: Breast Cancer, besylate salt
[5] = system: SK-MEL-5; details: SK-MEL-5, Melanoma; besylate salt
[6] = system: SK-OV-3; assay: cells; details: Homo sapiens
[7] = system: HOP-62; details: HOP-62, Non-Small Cell Lung Cancer; besylate salt
[8] = system: K-562; assay: cells; details: Homo sapiens
[9] = system: SK-MEL-28; details: SK-MEL-28, Melanoma; besylate salt
[10] = system: SNB-75; assay: cells; details: Homo sapiens
[11] = system: UACC-257; assay: cells; details: Homo sapiens
[12] = system: NCI-H522; assay: cells; details: Homo sapiens, NCI-H522, read-out: LC50
[13] = system: UO-31; details: UO-31, Renal Cancer; besylate salt
[14] = system: NCI/ADR-RES; assay: cells; details: Homo sapiens
[15] = system: SNB-75; details: SNB-75, CNS Cancer; besylate salt
[16] = system: 786-0; assay: cells; details: Homo sapiens
[17] = system: HL-60(TB); assay: cells; details: Homo sapiens
[18] = system: SK-OV-3; details: SK-OV-3, Ovarian Cancer; besylate salt
[19] = system: SR; details: Leukemia, besylate salt
[20] = system: SK-MEL-5; assay: cells; details: Homo sapiens
[21] = system: CAKI-1; assay: cells; details: Homo sapiens
[22] = system: HCT-15; details: HCT-15, Colon Cancer; besylate salt
[23] = system: T-47D; assay: cells; details: Homo sapiens, T47D, read-out: LC50
[24] = system: KM12; assay: cells; details: Homo sapiens
[25] = system: ACHN; details: Renal Cancer, besylate salt
[26] = system: UACC-62; details: UACC-62, Melanoma; besylate salt
[27] = system: M14; assay: cells; details: Homo sapiens
[28] = system: SK-MEL-2; details: SK-MEL-2, Melanoma; besylate salt
[29] = system: OVCAR-4; assay: cells; details: Homo sapiens
[30] = system: BT-549; details: BT-549, Breast Cancer; besylate salt
[31] = system: UACC-257; details: UACC-257, Melanoma; besylate salt
[32] = system: CAKI-1; details: CAKI-1, Renal Cancer; besylate salt
[33] = system: SR; assay: cells; details: Homo sapiens
[34] = system: T-47D; details: Breast Cancer, besylate salt
[35] = system: HT29; details: HT29, Colon Cancer; besylate salt
[36] = system: IGROV1; details: IGROV1, Ovarian Cancer; besylate salt

COc1cc(Nc2ncc(F)c(Nc3ccc4c(n3)NC(=O)C(C)(C)O4)n2)cc(OC)c1OC [Compound 1]
0.871 µM: IC50 ([10]; SNB-75, read-out: G150)
3.56 µM: IC50 ([33]; read-out: G150)
0.355 µM: IC50 ([24]; KM12, read-out: G150)
2.44E−6: TGI [32]
> 100 µM: CC50 ([1]; COLO 205, read-out: LC50) | IC50 ([2]; OVCAR-3, read-out: G150) | CC50 ([2]; OVCAR-3, read-out: LC50) | CC50 ([3]; NCI-H226, read-out: LC50) | CC50 ([6]; SK-OV-3, read-out: LC50) | IC50 ([8]; K562, read-out: G150) | CC50 ([8]; K562, read-out: LC50) | CC50 ([10]; SNB-75, read-out: LC50) | IC50 ([11]; UACC-257, read-out: G150) | CC50 ([11]; UACC-257, read-out: LC50) | CC50 [12] | IC50 ([14]; read-out: G150) | CC50 ([14]; read-out: LC50) | CC50 ([16]; 786-0, read-out: LC50) | IC50 ([17]; HL-60, read-out: G150) | CC50 ([17]; HL-60, read-out: LC50) | IC50 ([20]; SK-MEL-5, read-out: G150) | CC50 ([20]; SK-MEL-5, read-out: LC50) | CC50 ([21]; CAKI-1, read-out: LC50) | CC50 [23] | CC50 ([24]; KM12, read-out: LC50) | IC50 ([27]; M14, read-out: G150) | CC50 ([27]; M14, read-out: LC50) | IC50 ([29]; OVCAR-4, read-out: G150) | CC50 ([29]; OVCAR-4, read-out: LC50) | CC50 ([33]; read-out: LC50)
7.26 µM: IC50 ([1]; COLO 205, read-out: G150)
0.873 µM: IC50 ([16]; 786-0, read-out: G150)
>1.00E−4: TGI [4] | TGI [5] | TGI [7] | TGI [9] | TGI [13] | TGI [15] | TGI [18] | TGI [19] | TGI [22] | TGI [25] | TGI [26] | TGI [28] | TGI [30] | TGI [31] | TGI [34] | TGI [35] | TGI [36]
0.429 µM: IC50 ([6]; SK-OV-3, read-out: G150)
0.497 µM: IC50 ([3]; NCI-H226, read-out: G150)
0.0515 µM: IC50 ([21]; CAKI-1, read-out: G150)
